Assay: recombinant UMI read abundance after kanamycin selection (control-corrected) (log10(CPM+1)); higher = more efficient recombination; extreme values may be limits of the assay; sequences stand for … in AGTGCAGAGAAAATCGGCCAGTTTTCTCTGCCTGCAGTCCGCATGCCGTGGGACCCCTTGGGTTCTAACCTGTTGCCTAGATTTATGCAGCGGACTGCCTTTCTCCCAAAGTGATAAACCGG…AGGTTGGTTTCACT; site = the 11-nt donor
Procedure, shortened: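 In Escherichia coli, a pool of donor and donor-binding-loop pairs, each with a 12-nt UMI, was tested for the IS621 bridge recombinase. Plating was on IPTG (0.07 mM) plus kanamycin, or without selection, in two replicates. Recombinant UMIs were amplified by PCR across the donor–target junction and sequenced, and counts were reported as log10(CPM+1) after averaging and control-derived scaling.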
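Further: IS621 bridge recombinase in Escherichia coli cells against a fixed T5 target plasmid.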

“CCTGGTGCATGGACCGGTTTTCCCGGTAATCCGTATTTGAT (site CCCGGTGCTAT)” and “CCTGGTGCATGGACCGGTTTTCCCGGTAATCCGTATTTGAT (site CCGGGTGCTAT)” are within 0.2 log units of each other in “recombinant UMI read abundance (log10)” value: 0.00946 for the first, 0.00642 for the second.

Compared with “CCTGGTGCATGGACCGGTTTTCCCGGTAATCCGTATTTGAT (site CCTGGTGCTAT)”, “CCTGTTCCATGGACCGGTTTTCCCGGTAATCCGTATTTGTC (site CCTGTTCCTGA)” is lower in “recombinant UMI read abundance (log10)” value: 0.494 for the first, 0 for the second.

“CCTGTTTCATGGACCGGTTTTCCCGGTAATCCGTATTTGAC (site CCTGTTTCTGT)” and “CCTTAGCCATGGACCGGTTTTCCCGGTAATCCGTATTTGCC (site CCATAGCCTGG)” are the same in “recombinant UMI read abundance (log10)” value: 0 for the first, 0 for the second.

“CCTTAGCCATGGACCGGTTTTCCCGGTAATCCGTATTTGCC (site CCCTAGCCTGG)” and “CCTTAGCCATGGACCGGTTTTCCCGGTAATCCGTATTTGCC (site CCGTAGCCTGG)” are the same in “recombinant UMI read abundance (log10)” value: 0 for the first, 0 for the second.

“CCTTAGCCATGGACCGGTTTTCCCGGTAATCCGTATTTGCC (site CCTTAGCCTGG)” and “CCTTCTACATGGACCGGTTTTCCCGGTAATCCGTATTTGAT (site CCTTCTACTAT)” are the same in “recombinant UMI read abundance (log10)” value: 0 for the first, 0 for the second.

“CCTTGACCATGGACCGGTTTTCCCGGTAATCCGTATTTGAG (site CCTTGACCTCT)” and “CCTTGAGCATGGACCGGTTTTCCCGGTAATCCGTATTTGTA (site CCTTGAGCTTA)” are within 0.2 log units of each other in “recombinant UMI read abundance (log10)” value: 0.0135 for the first, 0.013 for the second.

“CCTTGCACATGGACCGGTTTTCCCGGTAATCCGTATTTGAG (site CCTTGCACTCT)” and “CCTTGTGCATGGACCGGTTTTCCCGGTAATCCGTATTTGGA (site CCTTGTGCTTC)” are within 0.2 log units of each other in “recombinant UMI read abundance (log10)” value: 0.0135 for the first, 0.0149 for the second.

“CCTTTACCATGGACCGGTTTTCCCGGTAATCCGTATTTGCC (site AGACCGTCTCT)” and “CCTTTTACATGGACCGGTTTTCCCGGTAATCCGTATTTGCT (site CCATTTACTAG)” are within 0.2 log units of each other in “recombinant UMI read abundance (log10)” value: 0.00566 for the first, 0 for the second.

“CCTTTTACATGGACCGGTTTTCCCGGTAATCCGTATTTGCT (site CCCTTTACTAG)” and “CCTTTTACATGGACCGGTTTTCCCGGTAATCCGTATTTGCT (site CCGTTTACTAG)” are within 0.2 log units of each other in “recombinant UMI read abundance (log10)” value: 0 for the first, 0.00369 for the second.

Compared with “CCTTTTACATGGACCGGTTTTCCCGGTAATCCGTATTTGCT (site CCTTTTACTAG)”, “CGAAATCCATGGACCGGTTTTCCCGGTAATCCGTATTTGCT (site CGAAATCCTAG)” is higher in “recombinant UMI read abundance (log10)” value: 0 for the first, 0.783 for the second.

Going from “CGAAATCCATGGACCGGTTTTCCCGGTAATCCGTATTTGCT (site CGGAATCCTAA)” to “CGAAATCCATGGACCGGTTTTCCCGGTAATCCGTATTTGTA (site CGAAATCCTTA)”, the “recombinant UMI read abundance (log10)” value rises from 0 to 1.11.

Going from “CGAAATCCATGGACCGGTTTTCCCGGTAATCCGTATTTGTA (site CGGAATCCTAA)” to “CGAAATCCATGGACCGGTTTTCCCGGTAATCCGTATTTGTT (site CGAAATCCTAA)”, the “recombinant UMI read abundance (log10)” value rises from 0.00383 to 0.953.

“CGAAATCCATGGACCGGTTTTCCCGGTAATCCGTATTTGTT (site CGCAATCCTAA)” and “CGAAATCCATGGACCGGTTTTCCCGGTAATCCGTATTTGTT (site CGGAATCCTAA)” are the same in “recombinant UMI read abundance (log10)” value: 0 for the first, 0 for the second.

Going from “CGAAATCCATGGACCGGTTTTCCCGGTAATCCGTATTTGTT (site CGTAATCCTAA)” to “CGAAATTCATGGACCGGTTTTCCCGGTAATCCGTATTTGTT (site CGAAATTCTAA)”, the “recombinant UMI read abundance (log10)” value rises from 0 to 0.945.

“CGAAATTCATGGACCGGTTTTCCCGGTAATCCGTATTTGTT (site CGGAATCCTAA)” and “CGAACACCATGGACCGGTTTTCCCGGTAATCCGTATTTGCT (site CGAACACCTAG)” are the same in “recombinant UMI read abundance (log10)” value: 0 for the first, 0 for the second.

Going from “CGAACACCATGGACCGGTTTTCCCGGTAATCCGTATTTGCT (site CGATCATCTAG)” to “CGAACGTCATGGACCGGTTTTCCCGGTAATCCGTATTTGCT (site CGAACGTCTAG)”, the “recombinant UMI read abundance (log10)” value rises from 0 to 2.87.

Compared with “CGAACGTCATGGACCGGTTTTCCCGGTAATCCGTATTTGCT (site CGATCATCTAG)”, “CGAAGAGCATGGACCGGTTTTCCCGGTAATCCGTATTTGAC (site CGAAGAGCTGT)” is higher in “recombinant UMI read abundance (log10)” value: 0 for the first, 2.51 for the second.

First: CGAAGGGCATGGACCGGTTTTCCCGGTAATCCGTATTTGGT (site CGAAGGGCTAC)
Second: CGAAGTACATGGACCGGTTTTCCCGGTAATCCGTATTTGCG (site CGAAGTACTCG)
The “recombinant UMI read abundance (log10)” value of the first is lower: 1.32 for the first, 2.12 for the second.

Compared with “CGAATACCATGGACCGGTTTTCCCGGTAATCCGTATTTGTA (site CGAATACCTTA)”, “CGAATATCATGGACCGGTTTTCCCGGTAATCCGTATTTGCG (site CGAATATCTCG)” is higher in “recombinant UMI read abundance (log10)” value: 0 for the first, 2.99 for the second.

Going from “CGAATCGCATGGACCGGTTTTCCCGGTAATCCGTATTTGAT (site CGAATCGCTAT)” to “CGAATGGCATGGACCGGTTTTCCCGGTAATCCGTATTTGCG (site GAGGGCACTAT)”, the “recombinant UMI read abundance (log10)” value falls from 2.72 to 0.0326.

Going from “CGACCAACATGGACCGGTTTTCCCGGTAATCCGTATTTGCT (site CGACCAACTAG)” to “CGACCAACATGGACCGGTTTTCCCGGTAATCCGTATTTGCT (site CGATCATCTAG)”, the “recombinant UMI read abundance (log10)” value falls from 2.28 to 0.

“CGACCCGCATGGACCGGTTTTCCCGGTAATCCGTATTTGCG (site CGACCCGCTCG)” and “CGACGACCATGGACCGGTTTTCCCGGTAATCCGTATTTGAA (site CGACGACCTTT)” are within 0.2 log units of each other in “recombinant UMI read abundance (log10)” value: 0.0234 for the first, 0.00772 for the second.

First: CGACGGTCATGGACCGGTTTTCCCGGTAATCCGTATTTGCC (site TATGCCGCTAT)
Second: CGACTAACATGGACCGGTTTTCCCGGTAATCCGTATTTGGA (site CAACTAACTTC)
The “recombinant UMI read abundance (log10)” value of the first is lower: 0 for the first, 1.44 for the second.

First: CGACTAACATGGACCGGTTTTCCCGGTAATCCGTATTTGGA (site CCACTAACTTC)
Second: CGACTAACATGGACCGGTTTTCCCGGTAATCCGTATTTGGA (site CGACTAACTTC)
The “recombinant UMI read abundance (log10)” value of the first is lower: 0.226 for the first, 1.74 for the second.

First: CGACTAACATGGACCGGTTTTCCCGGTAATCCGTATTTGGA (site CTACTAACTTC)
Second: CGAGAACCATGGACCGGTTTTCCCGGTAATCCGTATTTGGG (site CGAGAACCTCC)
The “recombinant UMI read abundance (log10)” value of the first is higher: 0.554 for the first, 0 for the second.

“CGAGAACCATGGACCGGTTTTCCCGGTAATCCGTATTTGGG (site CGAGCACCTCC)” and “CGAGAACCATGGACCGGTTTTCCCGGTAATCCGTATTTGGG (site CGAGGACCTCC)” are within 0.2 log units of each other in “recombinant UMI read abundance (log10)” value: 0.00673 for the first, 0.0198 for the second.

Compared with “CGAGAACCATGGACCGGTTTTCCCGGTAATCCGTATTTGGG (site CGAGTACCTCC)”, “CGAGAAGCATGGACCGGTTTTCCCGGTAATCCGTATTTGCT (site CGAGAAGCTAG)” is higher in “recombinant UMI read abundance (log10)” value: 0.00635 for the first, 2.17 for the second.

First: CGAGAAGCATGGACCGGTTTTCCCGGTAATCCGTATTTGTC (site CGAGAAGCTGA)
Second: CGAGAGTCATGGACCGGTTTTCCCGGTAATCCGTATTTGCC (site CGAGAGTCTGG)
The “recombinant UMI read abundance (log10)” value of the first is lower: 2.25 for the first, 3.37 for the second.

Compared with “CGAGAGTCATGGACCGGTTTTCCCGGTAATCCGTATTTGCC (site CGCGAGTCTGG)”, “CGAGAGTCATGGACCGGTTTTCCCGGTAATCCGTATTTGCC (site CGGGAGTCTGG)” is higher in “recombinant UMI read abundance (log10)” value: 0 for the first, 1.46 for the second.

“CGAGAGTCATGGACCGGTTTTCCCGGTAATCCGTATTTGCC (site CGTGAGTCTGG)” and “CGAGCGACATGGACCGGTTTTCCCGGTAATCCGTATTTGTA (site CGAGCGACTTA)” are within 0.2 log units of each other in “recombinant UMI read abundance (log10)” value: 2.4 for the first, 2.3 for the second.

“CGAGGACCATGGACCGGTTTTCCCGGTAATCCGTATTTGAA (site CGAGGACCTTT)” and “CGAGGACCATGGACCGGTTTTCCCGGTAATCCGTATTTGGC (site CGAGGACCTAC)” are within 0.2 log units of each other in “recombinant UMI read abundance (log10)” value: 0.0106 for the first, 0.0204 for the second.

“CGAGGACCATGGACCGGTTTTCCCGGTAATCCGTATTTGGC (site CGAGGACCTCC)” and “CGAGGACCATGGACCGGTTTTCCCGGTAATCCGTATTTGGC (site CGAGGACCTGC)” are within 0.2 log units of each other in “recombinant UMI read abundance (log10)” value: 0.0246 for the first, 0 for the second.

“CGAGGACCATGGACCGGTTTTCCCGGTAATCCGTATTTGGC (site CGAGGACCTTC)” and “CGAGGCCCATGGACCGGTTTTCCCGGTAATCCGTATTTGGG (site CGAGGACCTCC)” are within 0.2 log units of each other in “recombinant UMI read abundance (log10)” value: 0.013 for the first, 0.0197 for the second.

“CGAGGCCCATGGACCGGTTTTCCCGGTAATCCGTATTTGGG (site CGAGGCCCTCC)” and “CGAGGCCCATGGACCGGTTTTCCCGGTAATCCGTATTTGGG (site CGAGGGCCTCC)” are within 0.2 log units of each other in “recombinant UMI read abundance (log10)” value: 0.0196 for the first, 0.016 for the second.
